Test system: Her2 protein levels in BT474 breast cancer cells
Experiment: Her2 degradation assay (marker for Hsp90 inhibition)
Format: cell-based
Conditions: Homo sapiens, BT-474, 8 hours with compound, Her2 immunocytochemistry, ArrayScan vTi
Experimental: Its inhibition impairs the capacity to fold or stabilize its client proteins, leading to the proteosomal dependent degradation of these unfolded proteins.
Cellular Her2 levels were measured by immunocytochemistry, and quantified using an ArrayScan vTi instrument (Cellomics Thermo Scientific).
Studies were performed as follows: 5000 cells/well are seeded in 96 well plates (Perkin Elmer) in DMEM/5% FCS and incubated for 48 hours at 37° C., 5% CO2.
Medium is then replaced with fresh medium containing test compounds at the required concentration. Concentration curves are prepared in DMEM/10% FCS from compound stocks in DMSO, and final DMSO concentration is 0.1% (v/v). Duplicate wells for each concentration point are prepared, with a typical highest compound concentration of 30 μM. […] Non-specific binding sites are blocked by incubating wells for 1 hour in PBS containing 3% (w/v) BSA. […] At least 10 fields, corresponding to at least 900 cells, are read for each well.

## Nc1nc2c3c(F)cccc3nc(Cc3ccc4c(c3)OCO4)n2n1 [5-(1,3-benzodioxol-5-ylmethyl)-10-fluoro[1,2,4]triazolo[1,5-c]quinazolin-2-amine]
  IC50: 6.78 µM

From patent US8580783B2, “[1,2,4]triazolo [1,5-c]pyrimidine derivatives as Hsp90 modulators” (Nerviano Medical Sciences S.r.l., priority 2010, dated 2013)
